For test [1], the target named is Syk (356-635 amino acids) catalytic domain (Homo sapiens (Human), UniProt P43405). Kind of test: Inhibition of enzymatic Syk kinase activity (radiometric). It is filed as biochemical. The settings on record: read-out: IC50 Syk. An outline of the steps: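 Human Syk (356-635) kinase domain (0.035–7.5 ng/reaction) preincubated with compound 30 minutes at room temperature, then reacted with pG4T substrate, 100 μM ATP (stock) and γ-32P-ATP for 10 minutes at 30° C. Reaction stopped with HCl/ATP, spotted on P81 paper, washed and counted by scintillation. Percent inhibition versus no-compound counts.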

Another test concerns the target JAK2 (Homo sapiens (Human), UniProt O60674). Kind of test: Inhibition of enzymatic JAK2 kinase activity (TR-FRET). Conditions: read-out: IC50 JAK. It is filed as biochemical. An outline of the steps: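 Enzyme preincubated with compound 30 min at RT, then Ulight-poly-GT substrate and ATP added for 60 min at RT. EDTA stop, Eu-antiphosphotyrosine antibody; TR-FRET ratio 665/615 nm (ex 340 nm), blank-corrected; % inhibition versus positive control.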
(Time-resolved FRET reads energy transfer from a long-lived donor to a nearby acceptor.)

Another test relates to RBL2H3 cells. In words: Degranulation assay: β-hexosaminidase release during immune complex mediated degranulation. It is filed as cell-based, rat. The settings on record: Rattus norvegicus, RBL-2H3, Assay Protocol B (96 well format); for inhibition at 1 µM: read-out: Degranulation % inhibition at 1 μM; for EC50: read-out: Degranulation EC50. An outline of the steps:
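RBL2H3 cells sensitized overnight (or 24 h) with anti-DNP rat IgE, pretreated 15 min with compounds in 0.5% DMSO, then challenged with DNP-BSA for 45–60 min. β-Hexosaminidase in supernatant read fluorometrically (Ex 355/Em 460 nm) with β-NAG substrate, 30 min RT; % release/inhibition calculated.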

These results are taken from patent publication US10183944B2 (Asana Biosciences, LLC, priority 2011, dated 2019).

Chain of JAK2 (O60674 808-1132): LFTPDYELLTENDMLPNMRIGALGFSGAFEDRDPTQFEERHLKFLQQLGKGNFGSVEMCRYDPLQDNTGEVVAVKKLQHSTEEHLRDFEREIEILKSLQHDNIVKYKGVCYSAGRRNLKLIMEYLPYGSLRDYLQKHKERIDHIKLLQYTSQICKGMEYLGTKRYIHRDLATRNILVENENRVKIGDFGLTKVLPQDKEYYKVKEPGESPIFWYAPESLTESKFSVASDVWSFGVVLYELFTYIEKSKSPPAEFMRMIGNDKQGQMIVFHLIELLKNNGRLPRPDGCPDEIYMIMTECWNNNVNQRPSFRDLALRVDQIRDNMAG

One may read the IC50 as the concentration that inhibits the measured activity by half. What is called inhibition is the change of the read-out against control, counted positive when it falls. Broadly, the EC50 is the concentration at which the effect is half-maximal. For the compound `O=C(O)CCN1CCN(c2ccc(Nc3nc(N4CCCCCC4)nc4cn[nH]c(=O)c34)cc2)CC1` [Example 208, 3-(4-(4-((2-(azepan-1-yl)-5-oxo-5,6-dihydropyrimido[4,5-d]pyridazin-4-yl)amino)phenyl)piperazin-1-yl) propanoic acid], in test [1], the IC50 was below 10 nM. At JAK2, the IC50 was below 10 nM. Further, in the test on RBL2H3 cells, the inhibition at 1 µM was 21% and the EC50 worked out at 14 nM.
Turning to `O=C(O)C1CC1C1CCN(c2ccc(Nc3nc(N4CCCCCC4)nc4cn[nH]c(=O)c34)cc2)CC1` (stereo not drawn) [Example 131, 2-(1-(4-((2-(azepan-1-yl)-5-oxo-5,6-dihydropyrimido[4,5-d]pyridazin-4-yl)amino)phenyl)piperidin-4-yl) cyclopropanecarboxylic acid], the IC50 in test [1] was below 10 nM. Besides, at JAK2, the IC50 is below 10 nM. Further, in the test on RBL2H3 cells, the inhibition at 1 µM was found to be 98% and the EC50 was found to be 35 nM.
As for `O=C(O)C1CCN(CCOc2ccc(Nc3nc(N4CCCCCC4)nc4cn[nH]c(=O)c34)cc2)CC1` [Example 98, 1-(2-(4-((2-(azepan-1-yl)-5-oxo-5,6-dihydropyrimido[4,5-d]pyridazin-4-yl)amino)phenoxy)ethyl)piperidine-4-carboxylic acid], in test [1], the IC50 is below 50 nM. Moreover, on JAK2, the IC50 was below 50 nM. Also, in the test on RBL2H3 cells, the inhibition at 1 µM turned out to be 62% and the EC50 came out at 593 nM.
On to `N#CCC1CCN(c2nc(Nc3ccc(OCCN4CCC(CO)CC4)cc3)c3c(=O)[nH]ncc3n2)CC1` [Example 218, 2-(1-(4-((4-(2-(4-(hydroxymethyl)piperidin-1-yl)ethoxy)phenyl)amino)-5-oxo-5,6-dihydropyrimido[4,5-d]pyridazin-2-yl)piperidin-4-yl) acetonitrile], for which the IC50 (in test [1]; at JAK2) was below 50 nM each time. Further, the inhibition at 1 µM with RBL2H3 cells was 33%. Also, in the test with RBL2H3 cells, the EC50 came out at 123 nM.
For the compound `O=C(O)CCCOc1ccc(Nc2nc(N3CCCCCC3)nc3cn[nH]c(=O)c23)cc1` [Example 92, 4-(4-((2-(azepan-1-yl)-5-oxo-5,6-dihydropyrimido[4,5-d]pyridazin-4-yl)amino)phenoxy)butanoic acid], in test [1], the IC50 was below 10 nM. The IC50 at JAK2 was below 50 nM. For the same compound, in the test on RBL2H3 cells, the inhibition at 1 µM was 100% and the 50% effective concentration (EC50) was found to be 111 nM.
On the same counts, the results for `O=C(O)CN1CCCN(c2ccc(Nc3nc(N4CCCCCC4)nc4cn[nH]c(=O)c34)cc2)CC1` [Example 145, 2-(4-(4-((2-(azepan-1-yl)-5-oxo-5,6-dihydropyrimido[4,5-d]pyridazin-4-yl)amino)phenyl)-1,4-diazepan-1-yl)acetic acid] are below 10 nM, below 10 nM, 52% and 98 nM.
On the same counts, the results for `O=C(O)C[C@H]1CC[C@@H](c2ccc(Nc3nc(N4CCCCCC4)nc4cn[nH]c(=O)c34)cc2)CC1` [Example 123, 2-((1S,4S)-4-(4-((2-(azepan-1-yl)-5-oxo-5,6-dihydropyrimido[4,5-d]pyridazin-4-yl)amino)phenyl)cyclohexyl)acetic acid] are below 10 nM, below 10 nM, 90% and 116 nM.
`O=c1[nH]ncc2nc(N3CCCCCC3)nc(Nc3ccc(N4CCNCC4)cc3)c12` [Example 192, 2-(azepan-1-yl)-4-((4-(piperazin-1-yl)phenyl)amino)pyrimido[4,5-d]pyridazin-5(6H)-one]: the IC50 in test [1] is below 10 nM. Further, on JAK2, the IC50 is below 10 nM. Also, in the test on RBL2H3 cells, the inhibition at 1 µM turned out to be 82% and the EC50 was 27 nM.
As to `N#CCC1CCN(c2nc(Nc3ccc(N4CCN(CCF)CC4)cc3)c3c(=O)[nH]ncc3n2)CC1` [Example 276, 2-(1-(4-((4-(4-(2-fluoroethyl)piperazin-1-yl)phenyl)amino)-5-oxo-5,6-dihydropyrimido[4,5-d]pyridazin-2-yl)piperidin-4-yl)acetonitrile], the IC50 in test [1] is below 10 nM. In addition, the IC50 on JAK2 is below 50 nM. In the test with RBL2H3 cells, the inhibition at 1 µM is 91% and the EC50 was 24 nM.
